Positions count from the first letter of the chain named.
Legend:
ALK2/ACVR1 = molecular target: T1, ALK2/ACVR1 (Homo sapiens, UniProt Q04771); assay: Kinase assay (33P-ATP filter-binding), ALK2; assay type: biochemical; details: 20 mM; read-out: Kinase Selectivity ALK2/ACVR1 (20 mM)
T1 sequence (Q04771 21-509): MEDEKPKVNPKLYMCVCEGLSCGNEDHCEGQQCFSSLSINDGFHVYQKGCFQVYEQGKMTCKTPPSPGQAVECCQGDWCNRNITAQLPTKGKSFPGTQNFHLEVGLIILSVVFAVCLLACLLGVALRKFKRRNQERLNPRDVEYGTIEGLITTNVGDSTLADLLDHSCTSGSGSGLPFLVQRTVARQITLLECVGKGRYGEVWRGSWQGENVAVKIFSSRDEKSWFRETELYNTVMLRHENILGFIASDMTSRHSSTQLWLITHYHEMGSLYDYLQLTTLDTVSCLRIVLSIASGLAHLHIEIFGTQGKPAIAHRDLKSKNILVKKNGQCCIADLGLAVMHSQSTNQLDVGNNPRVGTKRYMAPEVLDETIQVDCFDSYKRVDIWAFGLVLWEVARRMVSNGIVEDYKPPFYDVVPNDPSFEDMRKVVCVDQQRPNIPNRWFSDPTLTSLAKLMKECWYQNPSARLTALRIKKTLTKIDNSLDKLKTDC
Protocol: (§1) The kinase assays were carried out briefly as follows. Substrate was prepared in Base Reaction Buffer (20 mM Hepes (pH 7.5), 10 mM MgCl2, 1 mM EGTA, 0.02% Brij35, 0.02 mg/ml BSA, 0.1 mM Na3VO4, 2 mM DTT, 1% DMSO). The indicated kinases was delivered into the substrate solution and allowed to gently mix. Next, the specific compound was delivered in DMSO into the kinase mixture by Acoustic technology (Echo550; nanoliter range), and allowed to incubate for 20 minutes at room temperature. Next, ^33P-ATP was delivered into the reaction mixture to initiate the reaction and allowed to incubate at room temperature. After 2 hours, the reactions were spotted onto P81 ion exchange paper and the kinase activity is detected by the filter-binding method.

ALK2 (Q207D) = molecular target: T2, ALK2 (Q207D) (Homo sapiens, UniProt Q04771, Q207D); assay: Kinase assay (33P-ATP filter-binding), ALK2 Q207D; assay type: biochemical; details: Q207D mutant, 20 mM; read-out: Kinase Selectivity ALK2 (Q207D, 20 mM)
T2 sequence (Q04771 21-509 Q207D): T1 sequence (Q04771 21-509) with Q187D
Protocol: as §1

ALK1/ACVRL1 = ALK1/ACVRL1 (Homo sapiens, UniProt P37023); assay: Kinase assay (33P-ATP filter-binding), ALK1; assay type: biochemical; details: read-out: Kinase Selectivity ALK1/ACVRL1
Protocol: as §1

ALK2 (R206H) = molecular target: T3, ALK2 (R206H) (Homo sapiens, UniProt Q04771, R206H); assay: Kinase assay (33P-ATP filter-binding), ALK2 R206H; assay type: biochemical; details: R206H mutant, 20 mM; read-out: Kinase Selectivity ALK2 (R206H, 20 mM)
T3 sequence (Q04771 21-509 R206H): T1 sequence (Q04771 21-509) with R186H
Protocol: as §1

ALK3/BMPR1A = ALK3/BMPR1A (Homo sapiens, UniProt P36894); assay: Kinase assay (33P-ATP filter-binding), ALK3; assay type: biochemical; details: 1 mM; read-out: Kinase Selectivity ALK3/BMPR1A (1 mM)
Protocol: as §1

Protein binding, human = assay type: in vitro ADME
[1] = Intrinsic clearance, mouse; assay type: in vitro ADME; details: mouse
Protein binding, mouse = assay type: in vitro ADME
[2] = Intrinsic clearance, human; assay type: in vitro ADME; details: human
[3] = CL-Hep, value in parentheses, read-out: Intrinsic Clearance Mouse (CL-Hep)
[4] = read-out: Intrinsic Clearance Mouse
[5] = CL-Hep, value in parentheses, read-out: Intrinsic Clearance Human (CL-Hep)
[6] = read-out: Intrinsic Clearance Human

ALK3/BMPR1A, sequence (P36894 24-532): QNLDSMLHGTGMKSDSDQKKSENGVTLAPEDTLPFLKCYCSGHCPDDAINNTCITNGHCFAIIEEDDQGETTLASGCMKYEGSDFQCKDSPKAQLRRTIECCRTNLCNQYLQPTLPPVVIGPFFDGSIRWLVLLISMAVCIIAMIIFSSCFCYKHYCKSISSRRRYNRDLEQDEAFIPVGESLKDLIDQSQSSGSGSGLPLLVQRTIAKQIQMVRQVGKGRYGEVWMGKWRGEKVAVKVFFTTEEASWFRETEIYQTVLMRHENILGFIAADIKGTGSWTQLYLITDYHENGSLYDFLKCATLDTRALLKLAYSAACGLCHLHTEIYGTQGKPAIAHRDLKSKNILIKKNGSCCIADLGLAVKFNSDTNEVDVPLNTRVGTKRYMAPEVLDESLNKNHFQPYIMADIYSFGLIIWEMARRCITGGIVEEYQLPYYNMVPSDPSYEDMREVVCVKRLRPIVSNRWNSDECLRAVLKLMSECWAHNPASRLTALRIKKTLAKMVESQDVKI
ALK1/ACVRL1, sequence (P37023 22-503): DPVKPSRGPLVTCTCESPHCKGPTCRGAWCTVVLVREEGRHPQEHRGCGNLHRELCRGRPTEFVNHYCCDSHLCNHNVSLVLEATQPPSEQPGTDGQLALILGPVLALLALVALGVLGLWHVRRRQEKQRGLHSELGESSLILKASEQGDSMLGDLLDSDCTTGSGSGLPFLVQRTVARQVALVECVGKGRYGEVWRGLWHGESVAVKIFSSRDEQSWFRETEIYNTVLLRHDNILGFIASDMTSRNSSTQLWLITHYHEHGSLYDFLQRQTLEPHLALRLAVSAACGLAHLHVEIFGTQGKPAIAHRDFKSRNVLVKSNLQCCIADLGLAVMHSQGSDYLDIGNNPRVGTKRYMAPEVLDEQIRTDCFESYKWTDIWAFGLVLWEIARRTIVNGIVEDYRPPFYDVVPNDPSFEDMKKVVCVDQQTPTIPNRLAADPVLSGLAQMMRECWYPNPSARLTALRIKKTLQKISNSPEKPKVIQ

Row | Structure (SMILES) | IC50 (ALK2/ACVR1) | IC50 (ALK2 (Q207D)) | IC50 (ALK1/ACVRL1) | IC50 (ALK2 (R206H)) | IC50 (ALK3/BMPR1A) | Protein Binding (% Free) Human (Protein binding, human) | CLint scaled [1, 3] | CLint scaled [1, 4] | Protein Binding (% Free) Mouse (Protein binding, mouse) | CLint scaled [2, 5] | CLint scaled [2, 6]
1 | Cc1cc(-c2cnc3cc(-c4ccc(N5CCC6(CCC6)C5)cc4)ccn23)c2cc(F)cc(F)c2n1 [Compound 8] | > 50 µM | > 50 µM | > 50 µM | > 50 µM | 43.7 µM |  |  |  |  |  | 
2 | Cc1cc(-c2cnc3cc(-c4ccc(N5CCCC6(CCCN6)C5)cc4)ccn23)c2cc(F)cc(F)c2n1 (centres unmarked) [Compound 2] | 0.147 µM | 0.114 µM | 0.936 µM | 0.128 µM | 0.045 µM |  |  |  |  |  | 
3 | c1ncc2scc(-c3cnc4cc(-c5ccc(C6CNCCN6)cc5)ccn34)c2n1 (centres unmarked) [Compound 35] | 0.157 µM | 0.0658 µM | 14.2 µM | 0.214 µM | 9.45 µM |  |  |  |  |  | 
4 | Cc1cc(-c2cnc3cc(-c4ccc(C5COC(C)CN5)cc4)ccn23)c2cc(F)cc(F)c2n1 (centres unmarked) [Compound 19] | < 0.0051 µM | < 0.0051 µM | 0.0141 µM | < 0.0051 µM | < 0.0051 µM | 3.74 % Free | 53.3 mL/min/kg | 131 mL/min/kg | 3.15 % Free | 15.9 mL/min/kg | 77.2 mL/min/kg
5 | Cc1cc(-c2cnc3cc(-c4ccc(C5COC(C)CN5)cc4)ccn23)c2cc(F)ccc2n1 (centres unmarked) [Compound 15] | < 0.0051 µM | < 0.0051 µM | 0.0341 µM | < 0.0051 µM | < 0.0051 µM | 1.26 % Free | 38.1 mL/min/kg | 66.3 mL/min/kg | 1.01 % Free | 15.7 mL/min/kg | 74 mL/min/kg
6 | c1cc(-c2cnc3cc(-c4ccc(C5CNCCN5)cc4)ccn23)ccn1 (centres unmarked) [Compound 30] | 0.0688 µM | 0.035 µM | 0.447 µM | 0.0967 µM | 0.0551 µM |  |  |  |  |  | 
7 | Cc1cc(-c2cnc3cc(-c4ccc(C5COCC(C)N5)cc4)ccn23)c2cc(F)ccc2n1 (centres unmarked) [Compound 20] | < 0.0051 µM | < 0.0051 µM | 0.023 µM | < 0.0051 µM | < 0.0051 µM | 4.01 % Free | 50.2 mL/min/kg | 114 mL/min/kg | 1.36 % Free | 17.1 mL/min/kg | 117 mL/min/kg
8 | Cc1cc(-c2cnc3cc(-c4ccc(C5COCCN5)cc4)ccn23)c2ccccc2n1 (centres unmarked) [Compound 21] |  |  | < 0.0051 µM |  | < 0.0051 µM | 3.05 % Free |  |  | 6.24 % Free | 17.5 mL/min/kg | 
9 | Cc1cc(-c2cnc3cc(-c4ccc(C5COC(C)CN5)cc4)ccn23)c2ccccc2n1 (centres unmarked) [Compound 14] | < 0.0051 µM | < 0.0051 µM | < 0.0051 µM | < 0.0051 µM | < 0.0051 µM | 0.76 % Free | 50.3 mL/min/kg | 114 mL/min/kg | 1.6 % Free | 16.5 mL/min/kg | 93 mL/min/kg
10 | Cc1cc(-c2cnc3cc(-c4ccc(C5COCCCN5)cc4)ccn23)c2cc(F)ccc2n1 (centres unmarked) [Compound 10] | < 0.0051 µM | < 0.0051 µM | < 0.0051 µM | < 0.0051 µM | < 0.0051 µM | 2.39 % Free | 47.6 mL/min/kg | 101 mL/min/kg | 1.91 % Free | 17.4 mL/min/kg | 139 mL/min/kg

Source: US10745400B2, “Inhibition of BMP signaling, compounds, compositions and uses thereof” (Vanderbilt University, priority 2018, dated 2020)
